Data from PMC7068650, “In silico screening of GMQ-like compounds reveals guanabenz and sephin1 as new allosteric modulators of acid-sensing ion channel 3” (Biochemical Pharmacology, 2020).
Each block holds one compound with its values, some of them ahead of it.

Experiments:
Assay type in all cases: cell-based
[1] = molecular target: T1, acid-sensing ion channel 3 (rASIC3) (Rattus norvegicus, UniProt O35240); test: whole-cell patch clamp, rASIC3-transfected CHO cells, activation at pH […] (estimated EC50; also potentiates pH […] and pH […] responses)
T1 construct: gene Asic3
T1 sequence (O35240 1-533): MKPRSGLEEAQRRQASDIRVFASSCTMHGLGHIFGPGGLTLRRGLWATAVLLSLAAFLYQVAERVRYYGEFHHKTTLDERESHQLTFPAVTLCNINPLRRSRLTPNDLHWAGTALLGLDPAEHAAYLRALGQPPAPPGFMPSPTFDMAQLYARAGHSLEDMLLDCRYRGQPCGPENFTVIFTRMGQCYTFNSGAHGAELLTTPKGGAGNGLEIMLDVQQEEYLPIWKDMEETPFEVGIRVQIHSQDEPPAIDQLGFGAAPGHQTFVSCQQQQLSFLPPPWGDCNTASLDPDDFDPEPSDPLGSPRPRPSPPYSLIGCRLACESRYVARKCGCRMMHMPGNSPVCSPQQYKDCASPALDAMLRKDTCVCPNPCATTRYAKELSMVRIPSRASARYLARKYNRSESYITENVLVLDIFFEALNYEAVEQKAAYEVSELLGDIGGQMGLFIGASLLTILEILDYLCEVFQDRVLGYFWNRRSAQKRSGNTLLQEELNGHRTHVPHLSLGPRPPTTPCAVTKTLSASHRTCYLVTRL

[2] = molecular target: T1, acid-sensing ion channel 3 (rASIC3); test: whole-cell patch clamp, rASIC3-transfected CHO cells, activation at pH […] (reference agonist; estimated EC50)
[3] = molecular target: T1, acid-sensing ion channel 3 (rASIC3); test: whole-cell patch clamp, rASIC3-transfected CHO cells, potentiation of the pH […] response at […] (no effect on pH […] response)

EC50 [1]: ~67.5 µM
SMILES: N=C(N)N/N=C/c1c(Cl)cccc1Cl [GBZ, guanabenz]

EC50 [2]: ~680 µM
SMILES: Cc1nc(NC(=N)N)nc2ccccc12 [GMQ, 2-guanidine-4-methylquinazoline]

SMILES: Clc1ccc2nsnc2c1NC1=NCCN1 [TIZ, tizanidine]
whole-cell patch clamp, rASIC3-transfected CHO cells, potentiation of the pH 7 r [3]: TIZ and GBZ produced a similar effect, inducing an increase in the peak and sustained currents
